Measured values: US7553821B2, “Methods for selectively modulating survivin apoptosis pathways” (Yale University, priority 2000, dated 2009)

Tested on: HeLa cells
Assay: Nuclear morphology of apoptosis (DAPI) in transfected HeLa cells
Type: cell-based
Excerpt: HeLa cells transfected with GFP-vector (vector), GFP-survivin(T34A) (T34A), or GFP-caspase-9 (Met^1-Asp^330) (caspase-9), were scored morphologically for nuclear integrity by DAPI staining after 48-h. Arrows, nuclear fragmentation and chromatin condensation in GFP-expressing cells.
The experimental procedures are the same as in A. Data are the meaνSEM of four independent experiments.
HeLa cells were transfected with the various indicated combinations of GFP-constructs, with or without etoposide (10 μg/ml) or TNFα (10 ng/ml) plus cycloheximide (10 μg/ml), harvested after 48 h, and GFP-labeled cells were morphologically scored for nuclear fragmentation by DAPI staining, as described in FIG. 2B. DN, dominant negative. Data are the mea±SEM of four independent experiments.
Transfection experiments. For transient transfection, HeLa cells in C-6 tissue culture plates (Costar, Cambridge, Mass.) at ˜60-70% confluency, were incubated in 1 ml of serum-free OptiMEM medium (Life Technologies, Gaithersburg, Md.) for 20 min, and transfected with 2.5 μg of the various plasmid cDNAs plus 9 μl Lipofectamine (Life Technologies). After a 5 h incubation at 37° C., the mixture was aspirated and substituted with complete growth medium for 48-72 h. To generate stable YUSAC-2 transfectants, a survivin(T34A) cDNA was inserted into the HindIII-SpeI sites of the pTet-splice vector (Dr. D. Schatz, Yale University School of Medicine), downstream of the regulatory sequences of the Tet-resistance operon (TetO). YUSAC-2 cells were transfected with 0.8 μg pTet-T34A, 0.8 μg of the transactivation/selection plasmid ptTA-Neo and 5 μl Lipofectamine in 1 ml of OptiMem. Forty-eight h after transfection, cells were re-plated at low density in 15×150 mm plates in growth medium containing 1.5 mg/ml Geneticin (G418, Life Technologies), 2 mM sodium hydroxide and 0.5 μg/ml Tet (Sigma, St. Louis, Mo.) (selection medium). After a 3-week culture, ninety-six individual clones were screened for differential growth in the presence or absence of Tet. […] Flow cytometry. HeLa cells transfected with the various GFP constructs in the presence or in the absence of the broad-spectrum caspase inhibitor Z-VAD-fmk (20 μM) were harvested after 48-h (non-adherent and adherent cells), washed in PBS, pH 7.0, and fixed in cold 70% ethanol for 30 min on ice. After washes in PBS, cells (10×10^6/ml) were stained with 25 μg/ml propidium iodide (Sigma), 0.05% Triton X-100 and 100 μg/ml RNAse A (Boehringer Mannheim, Indianapolis, Ind.) for 45 min at 22° C. Gated GFP-expressing cells were analyzed for DNA content by flow cytometry on a FACSort (Becton Dickinson, San Jose, Calif.) using a Cell Quest software. In other experiments, F5-C4 cells were synchronized at the G1/S boundary by culture with 5-mM thymidine for 16 h at 37° C., in the presence or in the absence of Tet. At the end of the incubation, cells were released from the thymidine block, and harvested at 3-h intervals for DNA content analysis by propidium iodide staining and flow cytometry, or, alternatively, for caspase-9 processing by Western blotting (see below). TUNEL staining. Internucleosomal DNA fragmentation of F5.C4 cells in the presence or in the absence of Tet was carried out by end-labeling with terminal deoxynucleotidyl transferase (TdT) and peroxidase-conjugated anti-digoxigenin antibody using the ApopTag kit (Intergen, Purchase, N.Y.), as described previously (Grossman et al., 1999). Immunoprecipitation and Western blotting. Asynchronously growing or synchronized HeLa cells were lysed in 200 μl of lysis buffer containing 50 mM Tris, pH 7.5, 1% NP-40, 0.25% DOC, 150 mM NaCl, 1 mM PMSF, 10 μg/ml aprotinin, 10 μg/ml leupeptin, 10 μg/ml pepstatin, 1 mM Na3VO4, 20 mM NaF, 0.2 mM EGTA, 1 mM EDTA, pH 8.0, for 30 min at 4° C. Insoluble material was removed by centrifugation at 14,000 rpm for 15 min, and two-hundred μg of protein lysate was pre-absorbed with 25 μl of a 50:50 Protein A Sepharose slurry (Pharmacia) for 3 h at 4° C. with constant agitation. […]

survivin(T34A): dominant-negative, non-phosphorylatable survivin mutant with Thr34→Ala substitution, expressed from transfected cDNA (also HA- or GFP-tagged)
spontaneous chromatin condensation and DNA fragmentation, GFP-expressing cells (GFP fusion, 48 h, no exogenous apoptotic stimuli): ~80% | ability to induce spontaneous apoptosis upon transient transfection (survivin BIR domain mutants): particularly effective
